The values that follow come from patent US8937184B2, “1H-imidazole derivatives as cannabinoid CB2 receptor modulators” (Abbvie B.V., priority 2005, dated 2015).

The target of series [1] is T1, human cannabinoid CB2 receptor (Homo sapiens, UniProt P34972).
T1 construct: expressed in transfected cells; host or cells: Chinese hamster ovary (CHO) cells, membrane preparation
Put plainly: In vitro affinity for cannabinoid-CB2 receptors ([3H]CP-55,940 radioligand binding, CHO cell membranes). The settings on record: for Ki: read-out: Human cannabinoid-CB2 receptor In vitro affinity - pKi value (converted). The protocol: The affinity of the compounds of the invention for cannabinoid CB2 receptors can be determined using membrane preparations of Chinese hamster ovary (CHO) cells in which the human cannabinoid CB2 receptor is stably transfected in conjunction with [^3H]CP-55,940 as radioligand. After incubation of a freshly prepared cell membrane preparation with the [^3H]-ligand, with or without addition of compounds of the invention, separation of bound and free ligand is performed by filtration over glassfiber filters. Radioactivity on the filter is measured by liquid scintillation counting.
The affinity of the compounds of the invention for cannabinoid CB2 receptors was determined as described above. From the binding affinity measured for a given compound of formula (I), one can estimate a theoretical lowest effective dose. At a concentration of the compound equal to twice the measured Ki-value, […] of the cannabinoid CB2 receptors likely will be occupied by the compound. Converting that concentration to mg of compound per kg of patient yields a theoretical lowest effective dose, assuming ideal bioavailability. Pharmacokinetic, pharmacodynamic, and other considerations may alter the dose actually administered to a higher or lower value. The dosage expediently administered is 0.001-1000 mg/kg, such as 0.1-100 mg/kg of patient's bodyweight.

In series [2] the target is T2, human cannabinoid CB1 receptor (Homo sapiens, UniProt P21554).
T2 construct: expressed in transfected cells; host or cells: Chinese hamster ovary (CHO) cells, membrane preparation
T2 sequence (P21554 whole entry): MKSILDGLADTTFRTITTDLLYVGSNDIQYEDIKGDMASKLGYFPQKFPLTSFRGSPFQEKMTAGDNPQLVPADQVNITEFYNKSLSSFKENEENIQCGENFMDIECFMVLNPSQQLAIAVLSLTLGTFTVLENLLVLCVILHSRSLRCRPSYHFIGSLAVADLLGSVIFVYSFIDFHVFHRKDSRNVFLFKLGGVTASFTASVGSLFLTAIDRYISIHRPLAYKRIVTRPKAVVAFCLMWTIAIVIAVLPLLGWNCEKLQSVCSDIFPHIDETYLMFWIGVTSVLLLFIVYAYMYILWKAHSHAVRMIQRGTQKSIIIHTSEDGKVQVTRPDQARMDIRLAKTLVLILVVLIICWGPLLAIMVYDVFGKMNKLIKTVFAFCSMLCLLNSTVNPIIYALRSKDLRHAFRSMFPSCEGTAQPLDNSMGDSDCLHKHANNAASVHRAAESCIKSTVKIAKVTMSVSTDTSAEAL
Put plainly: In vitro affinity for cannabinoid-CB1 receptors ([3H]CP-55,940 radioligand binding, CHO cell membranes). The protocol:
The affinity of the compounds of the invention for cannabinoid CB1 receptors can be determined using membrane preparations of Chinese hamster ovary (CHO) cells in which the human cannabinoid CB1 receptor is stably transfected in conjunction with [^3H]CP-55,940 as radioligand. After incubation of a freshly prepared cell membrane preparation with the [^3H]-ligand, with or without addition of compounds of the invention, separation of bound and free ligand is performed by filtration over glassfiber filters. Radioactivity on the filter is measured by liquid scintillation counting.

Where [3] appears, read: membranes of CHO cells stably transfected with human CB2 receptor, [3H]CP-55,940 radioligand.

pKi: −log10 of the molar value. Where two headings read alike, the source gives them in different places.

T1 sequence (P34972 whole entry): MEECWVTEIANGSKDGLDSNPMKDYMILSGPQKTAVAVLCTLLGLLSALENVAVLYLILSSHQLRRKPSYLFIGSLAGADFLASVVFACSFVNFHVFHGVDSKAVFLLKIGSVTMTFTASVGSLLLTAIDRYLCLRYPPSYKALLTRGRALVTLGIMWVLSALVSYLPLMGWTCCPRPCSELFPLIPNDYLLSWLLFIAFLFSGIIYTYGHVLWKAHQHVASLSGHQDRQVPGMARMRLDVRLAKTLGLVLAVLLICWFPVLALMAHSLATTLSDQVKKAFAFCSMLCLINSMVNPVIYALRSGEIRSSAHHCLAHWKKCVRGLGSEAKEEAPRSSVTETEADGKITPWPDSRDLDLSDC

On to `Cc1c(C(=O)NC23CC4CC(CC(C4)C2)C3)ncn1Cc1ccccc1`, for which the melting point (as a rule, the temperature, or range, at which the solid turns liquid) was in the range of 182 to 184 °C.
For the compound `Cc1c(C(=O)N[C@H]2C(C)(C)[C@H]3CC[C@]2(C)C3)ncn1CCCNS(C)(=O)=O`, the melting point was 149 to 156 °C.
In turn, `O=C(NC12CC3CC(CC(C3)C1)C2)c1nc(Br)n(-c2ccccc2)c1Br` came in with a melting point of 228 to 231 °C.
With `Cc1c(C(=O)Nc2cccc3ccccc23)ncn1-c1ccccc1`, the melting point lay in the range of 167 to 169 °C.
`O=C(NC12CC3CC(CC(C3)C1)C2)c1nc(Cl)n(-c2ccccc2)c1Cl` showed a melting point of 172 to 173 °C.
For `Cc1nc(C(=O)Nc2cccc3ccccc23)c(C)n1-c1ccccc1.Cl`, the melting point was in the range of 177 to 179 °C.
`Cc1nc(C(=O)N[C@@H]2C(C)(C)C3CC[C@@]2(C)C3)c(C)n1-c1ccccc1` had a melting point of 130 to 132 °C.
`Cc1c(C(=O)N[C@H]2C(C)(C)[C@H]3CC[C@]2(C)C3)ncn1-c1ccccc1`: the melting point fell in the range of 149 to 152 °C.
In turn, `Cc1nc(C(=O)NC23CC4CC(CC2C4)C3)c(C)n1-c1ccccc1` registered a melting point of 147 to 150 °C.
Compound `Cc1nc(C(=O)Nc2ccnc3cc(C(F)(F)F)ccc23)c(C)n1-c1ccccc1` yielded a melting point of 198.5 °C.
As for `Cc1nc(C(=O)Nc2ccc(C#N)c3ccccc23)c(C)n1-c1ccccc1`, the melting point amounted to 241.5 °C.
For `CCCCc1c(C(=O)NC23CC4CC(CC(C4)C2)C3)nc(C)n1-c1ccccc1`, the melting point is 171 to 172 °C.
Same read-out and setting: with `Cc1nc(C(=O)NC23CC4CC(CC(C4)C2)C3)c(C)n1-c1ccc2c(c1)OCCO2.Cl` the figure was 221 to 223 °C; with `Cc1nc(C(=O)NN2CCCCC2)c(C)n1-c1ccccc1`, 117 to 118 °C; with `CCc1nc(C(=O)Nc2cccc3ccccc23)c(CC)n1-c1ccccc1`, 123 to 125 °C.
`COC(=O)[C@H](Cc1ccccc1)NC(=O)c1cn(CCOc2ccccc2)cn1` [BMS-I, reference compound]: the pKi (commonly −log10 of the Ki, conventionally taken in molar units) in series [1] is 6.40.
Still for that read-out and setting: under `COC(=O)[C@H](Cc1ccccc1)NC(=O)c1cn(CCN2CCOCC2)cn1` [BMS-II, reference compound] stands under 6.00; under `CCCCCn1cnc(C(=O)N[C@@H](Cc2ccccc2)C(=O)OC)c1` [BMS-III, reference compound], 7.20.
As to `Cc1c(C(=O)NC23CC4CC(CC(C4)C2)C3)ncn1-c1ccccc1` [Compound 2], the melting point lay within 214 to 219 °C.
For `Cc1c(C(=O)N[C@H]2C[C@H]3CC[C@]2(C)C3(C)C)ncn1-c1ccccc1` [Compound 4], the melting point is 209 to 212 °C.
With `O=C(NC12CC3CC(CC(C3)C1)C2)c1cn(-c2ccccc2)cn1` [Compound 6], the melting point was in the range of 198 to 200 °C.
The compound `O=C(NC1C2CC3CC(C2)CC1C3)c1cn(-c2ccccc2)cn1` (stereo not drawn) [Compound 7] yielded a melting point of 232 to 234 °C.
In the case of `Cc1nc(C(=O)NC23CC4CC(CC(C4)C2)C3)cn1-c1ccccc1` [Compound 8, N-adamantyl-2-methyl-1-phenyl-1H-imidazole-4-carboxamide], the melting point was in the range of 207 to 210 °C.
The same measure, in the same setting: with `Cc1nc(C(=O)NCC2CCC3C(C)(C)C34CC24)cn1-c1ccccc1` (stereo not drawn) [Compound 9] the figure was 124 to 127 °C.
Regarding `Cc1nc(C(=O)NC23CC4CC(CC(C4)C2)C3)c(C)n1-c1ccccc1` [Compound 11], the pKi in series [2] is under 6.00; in series [1] it was 9.00.
Take `COc1cccc(-n2c(C)nc(C(=O)NCC3CCC4C(C)(C)C45CC35)c2C)c1` (stereo not drawn) [Compound 12]: the melting point fell in the range of 153 to 155 °C.
Regarding `Cc1nc(C(=O)NC23CC4CC(CC(C4)C2)C3)c(C)n1C1CCCCC1` [Compound 14], the negative-log Ki (pKi) in series [2] is under 6.00; in series [1], 8.20.
In the case of `CCc1c(C(=O)NC23CC4CC(CC(C4)C2)C3)nc(C)n1-c1ccccc1` [Compound 15], the negative logarithm of the Ki (pKi) was 6.20 in series [2] and over 9.00 in series [1].
Take `CCc1nc(C(=O)NC23CC4CC(CC(C4)C2)C3)cn1-c1ccccc1` [Compound 20]: the figures for the pKi in series [2] and in series [1] were 6.60 and 8.00, respectively.
With `Cc1c(C(=O)NCC2CCC3C(C)(C)C34CC24)ncn1CCCNS(C)(=O)=O` (stereo not drawn) [Compound 22], the melting point fell in the range of 84 to 108 °C.
On to `CCCCCCC(=O)c1nc(C)n(-c2ccccc2)c1C` [Compound 26], for which the Ki in series [1] (setting [3]) is 0.158 µM.
The compound `O=C(NC12CC3CC(CC(C3)C1)C2)c1ncn(-c2ccccc2)c1Br` [Compound 27, N-(adamant-1-yl)-5-bromo-1-phenyl-1H-imidazole-4-carboxamide] yielded a melting point of 229 to 232 °C.
`Cc1nc(C(=O)NC23CC4CC(CC(C4)C2)C3)c(Br)n1-c1ccccc1` [Compound 33A]: the Ki in series [2] (membranes of CHO cells stably transfected with human CB1 receptor, [3H]CP-55,940 radioligand, read-out: Human cannabinoid-CB1 receptor In vitro affinity - pKi (converted)) was 0.794 µM. The pKi in series [1] was 8.20.
`Cc1nc(C(=O)NC23CC4CC(CC(C4)C2)C3)c(Cl)n1-c1ccccc1` [Compound 33] had a negative-log Ki (pKi) in series [1] of 8.10.
With `Cc1nc(C(=O)NCc2ccccc2C(F)(F)F)c(C)n1-c1ccccc1` [Compound 44], the melting point fell in the range of 76 to 79 °C. The Ki in series [1] (setting [3]) was 0.00158 µM.
Compound `Cc1nc(C(=O)Nc2cccc3ncccc23)c(C)n1-c1ccccc1` [Compound 46] registered a melting point of 139 to 141 °C.
`Cc1nc(C(=O)NC23CC4CC(CC(O)(C4)C2)C3)c(C)n1-c1ccccc1` [Compound 48, N-(3 hydroxyadamant-1-yl)-2,5-dimethyl-1-phenyl-1H-imidazole-4-carboxamide] returned a melting point of 215 to 220 °C.
As to `Cc1nc(C(=O)NC2C3CC4CC(C3)CC2C4)c(C)n1-c1ccccc1` (stereo not drawn) [Compound 49], the melting point lay in the range of 245 to 247 °C. Also, the pKi in series [2] is under 6.00. This compound showed a negative-log Ki (pKi) in series [1] of 8.60.
On to `Cc1c(C(=O)NC23CC4CC(CC(C4)C2)C3)nc(C(F)(F)F)n1-c1ccccc1` [Compound 64], for which the melting point lay in the range of 170 to 172 °C.
`Cc1nc(C(=O)Nc2cccc(Cl)c2Cl)c(C)n1-c1ccccc1` [Compound 65, N-(2,3-dichlorophenyl)-2,5-dimethyl-1-phenyl-1H-imidazole-4-carboxamide]: the melting point was in the range of 127 to 129 °C.
Compound `Cc1nc(C(=O)NC2CCCCCCC2)c(C)n1-c1ccccc1` [Compound 72] had a pKi in series [1] of 8.30.
As to “N-[(1R,2S,5R)-rel-6,6-dimethylbicyclo[3.1.1]heptan-2-methyl]-5-methyl-1-phenyl-1H-imidazole-4-carboxamide [Compound 1]”, in series [2] (membranes of CHO cells stably transfected with human CB1 receptor, [3H]CP-55,940 radioligand), the “Human cannabinoid-CB1 receptor In vitro affinity - pKi” value is given as under 6.0. In addition, in series [1] (setting [3]), the “Human cannabinoid-CB2 receptor In vitro affinity - pKi value” stood at 7.3.
